Results on two compounds are retold here after PMC4533973, “Synthesis and Evaluation of Chloramphenicol Homodimers: Molecular Target, Antimicrobial Activity, and Toxicity against Human Cells” (PLoS ONE, 2015).

The subject of one assay is P. aeruginosa (GRE5288). As to the kind of experiment: Antibacterial activity (growth inhibition, EC50). Format: cell-based, Pseudomonas aeruginosa. To be noted: Pseudomonas aeruginosa. The text has this: A.S. Mankin (University of Illinois). E. coli ΔtolC strain BL21 DE3 with impaired AcrAB-TolC, a proton-dependent MDR efflux pump causing multidrug resistance, was offered by Dr D.N. Wilson (University of Munich) and included in our study to test if this mechanism of resistance affects the efficacy of CAM dimers. […] I. Spiliopoulou (National Reference Laboratory for Staphylococci, School of Medicine, University of Patras, Greece). Finally, E. coli strain Rosetta(DE3)pLysS, containing a chloramphenicol resistant gene in the pLysS plasmid, was purchased from Novagen and was also included in our study. Briefly, S. aureus or E. coli cells (200 μl of a 0.700 OD560 preculture) containing wild-type or mutant ribosomes were added in 3.8 ml of LB (Luria-Bertani) medium and grown at 37°C in the presence or absence of CAM or CAM dimers until the optical density of the control culture (grown in the absence of drug) reached the value 0.700 at 560 nm. For E. faecium and P. aeruginosa cultures, TSB (Tryptic Soy Broth) medium was used, instead of LB medium, in order to achieve exponential doubling times between 25 and 35 minutes. From dose-response curves, the half-maximal effective concentration (EC50) for each compound and strain was estimated. EC50 represents the molar concentration of a compound that produces 50% of the maximal possible effect. The EC50 values were mathematically determined by non linear regression fitting of the observed culture optical-density values, expressed as the percentage of 0.700 (y), into Hill Equation, y=min+max−min/1+(x/EC50)^−n where min and max are the lowest and highest observed values of the culture optical density, respectively, x the concentration of the tested compound, and n the Hill coefficient that represents the largest absolute value of the curve slope. EC50 is equal to the x- value of the sigmoid’s midpoint. Fitting was performed using the Four Parameter Logistic Curve of the SigmaPlot Program Version 11.0 (Systat Software, Inc) for Exact Graphs and Data Analysis.

Assay [1] deals with post-translocation ribosomal complex (complex C) derived from E. coli. Description: Inhibition of peptide-bond formation (puromycin reaction, AcPhe-puromycin synthesis). Format: biochemical. To be noted: for Ki: 25°C, buffer A; for k off: nonlinear regression of k eq. Here is the method: The inhibitory effect of CAM dimers on peptide-bond formation was studied using the puromycin reaction, a model reaction between puromycin and a post-translocation ribosomal complex (complex C) derived from E. coli. Since puromycin, a pseudo-substrate of PTase which binds to the A-site of the catalytic center, was present in excess, the reaction obeyed first-order kinetics. The first-order rate constant, k obs, at each concentration of puromycin was determined by fitting the x values into Eq 1, ln100/100−x=kobst (1) where x is the product AcPhe-puromycin, expressed as the percentage of complex C added in the reaction mixture, and t is the time of the reaction.
A representative time plot obtained at 400 μM puromycin, in the absence of inhibitor, is illustrated in Fig 3A (upper line) and, as expected, is characterized by linearity. However, when the reaction proceeded in the presence of a CAM dimer, e.g. compound 5, the time plots were characterized by two unique features that distinguish them from a typical kinetic behavior. […] Second, the slopes of both progress curves varied as a function of the inhibitor concentration (Fig 3A, four lower curves). […] These kinetic results are consistent with compound 5 operating through an induced fit mechanism (Fig 3C), in which the inhibitor first binds rapidly to complex C to form the encounter complex CI, which then undergoes a slow conformational change to produce a final, tighter complex C*I. Corroborative evidence for the consistency of this model is provided by the hyperbolic shape of the equilibration plots (k eq versus [I]), in which k eq represents the apparent rate constant for the attainment of equilibrium among C, CI, and C*I (Fig 3B). If one-step mechanism of inhibition was applicable (C + I ⇄ C*I), k eq should be a linear function of [I] [27]. […] Because the isomerization constant k on/k off was calculated to be 3.6, the inhibition process was finally associated with high overall inhibition of peptide-bond formation (Ki* = 0.3 μM; S1 Fig, panel C). In addition, the slow k off rate (0.64 min^-1) provided prolonged residence time for compound 5 at the ribosome, a behavior potentially predicting good efficacy in vivo [28].
The puromycin reaction, i.e. the reaction between complex C and excess puromycin (S), was carried out at 25°C in buffer A [100 mM Tris-HCl pH 7.2, 6 mM (CH3COO)2Mg, 100 mM NH4Cl and 6 mM 2-mercaptoethanol]. Under these conditions, the puromycin reaction obeys C + S ⇄KS CS→kcat C^′ + S pseudo-first-order kinetics and was analyzed as previously described.
In the presence of CAM dimers, biphasic semi-logarithmic time plots were obtained. The slope of the straight line through the origin was seen as the value of the apparent rate constant, k obs(early), at the early phase of the reaction. Similarly, the slope of the second straight line was taken as the apparent rate constant, k obs(late), at the late phase of the puromycin reaction.

The subject of another assay is Jurkat cells. As to the kind of experiment: Toxicity assays in Jurkat cells (cell counting, necrosis and apoptosis by flow cytometry). Format: cell-based, Human. Here is the method: Fig 8 Toxicity assays in Jurkat cells. Jurkat cells were adjusted to 1×10^9 cells/L in RPMI-1640 medium containing 1% Penicillin/Streptomycin and 10% fetal bovine serum. The cells were grown in triplicate in the presence or absence of compound 5 at the indicated concentrations for 4 days at 37°C, under a humidified 5% CO2 atmosphere. CAM was used as a reference compound. For cell necrosis and apoptosis assays, samples (10^6 cells) were collected daily and determined by flow cytometry. Apoptotic and necrotic cells were expressed as a percentage of total cells.
Human leukemic cell lines, HS-Sultan (Burkitt’s lymphoma), Jurkat (T-cell acute lymphoblastic leukemia), and U937 (histiocytic lymphoma), were adjusted to 1×10^9 cells/l in RPMI-1640 medium supplemented with 10% fetal bovine serum and 1% penicillin/streptomycin. The cells were grown in triplicate in the absence (control cultures) or presence of CAM or CAM dimers for 4 days at 37°C, under a humidified 5% CO2 atmosphere. The medium was changed daily; CAM or CAM dimer addition was repeated after medium change. Aliquots were collected daily and counted in a CELL-DYN 3700 Hematology Analyzer. For cell necrosis and apoptosis assays, samples (10^6 cells) were collected and determined using the Annexin V-PE Apoptosis Detection Kit I (BD Pharmingen) for flow cytometry, according to the manufacturers’ instructions. Flow cytometry data were analyzed using the FlowJo flow cytometry analysis software. Necrotic and apoptotic cells were expressed as a percentage of total cells.
For orientation: A flow cytometer gives signals particle by particle.

In another assay the test system is E. faecium (GRE5152). Description: Antibacterial activity (growth inhibition, EC50). Format: cell-based. To be noted: Enterococcus faecium. A digest of the protocol:
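Step one: dilute 0.700-OD560 preculture into LB. Step two: grow at 37°C ± compound until control OD560 is 0.700. Step three: fit percent-of-0.700 values to the Hill equation, taking EC50 as the curve midpoint.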

[2] abbreviates: overall inhibition constant (CI + C*I).

A word on the EC50: it is the concentration that produces a half-maximal response. What is called Ki is the dissociation constant of the complex between target and ligand, obtained from inhibition or displacement.

The structures appear in SMILES notation. Like-named read-outs stand apart in the source and are kept apart here.

For `O=C(N[C@H](CO)[C@H](O)c1ccc([N+](=O)[O-])cc1)c1ccc(C(=O)N[C@H](CO)[C@H](O)c2ccc([N+](=O)[O-])cc2)cc1` [Compound 5, N^1,N^4-Bis ((1R,2R)-1,3-dihydroxy-1-(4-nitrophenyl)propan-2-yl)-terephthalamide], the EC50 with P. aeruginosa (GRE5288) (TSB medium, clinical isolate with MexAB-OprM and MexXY efflux, read-out: EC50) was 15.2 ± 1.3 µM. In addition, in assay [1], the “apparent association rate constant, (k on + k off)/K i” value is listed as 3×10^4 M^1s^-1 and the k off came out at 0.0105 ± 0.0005 s⁻¹. For the same compound, the “fold more potent than homodimers of CAM previously synthesized by Berkov-Zrihen et al.” value in assay [1] (direct comparison is not accurate) is ~ 10 fold. In addition, the affinity in assay [1] (encounter complex CI), expressed as Ki, was 1.4 ± 0.12 µM. The Ki in assay [1] (setting [2]) turned out to be 0.3 ± 0.03 µM. Also, the “fold more potent than CAM” value in assay [1] (ranking by K i*) turned out to be 3 fold. For the same compound, in the assay on Jurkat cells (60 μM, flow cytometry), the “apoptosis, expressed as a percentage of total cells” value came out at 43% and the necrosis entry is reported as “failed to induce necrosis”. In addition, the “growth of Jurkat cells” value in the assay on Jurkat cells (daily cell counting, all tested concentrations) is listed as “the rate of growth was reduced proportionally to the concentration”. Also, the EC50 in the assay with E. faecium (GRE5152) (TSB medium, 37°C, OD560, read-out: EC50) was 40.9 ± 3.8 µM.
For `O=C(CCCCC(=O)N[C@H](CO)[C@H](O)c1ccc([N+](=O)[O-])cc1)N[C@H](CO)[C@H](O)c1ccc([N+](=O)[O-])cc1` [Compound 4, N^1,N^6-Bis((1R,2R)-1,3-dihydroxy-1-(4-nitrophenyl)propan-2-yl)adipamide], the EC50 came to 72.6 ± 13.7 µM in the assay with P. aeruginosa (GRE5288) and 99.8 ± 46.9 µM in the assay with E. faecium (GRE5152). For the same compound, the Ki in assay [1] (encounter complex CI) came to 6 ± 0.54 µM; in assay [1] (setting [2]), 1.87 ± 0.15 µM. For the same compound, the k off in assay [1] stood at 0.0167 ± 0.00067 s⁻¹. Also, the “activity compared to CAM” value in assay [1] (ranking by K i*) was “lower”. For the same compound, in assay [1] (ranking by K i*), the “fold less efficient than compound 5” value is on record as 6 fold.
